Results from patent US20050074744A1, “Assays for evaluating anti-osteoarthritic activity” (priority 2003, published 2005).

Columns and labels:
collagenase 1 RNA = assay: Quantitative real-time RT-PCR of collagenase 1 RNA in IL-1β-treated ACGs; assay type: cell-based, human; conditions: ACG, 24 hours
Procedure: (§1) ACGs were constructed from the human chondrocyte strain Cc 05912 1°, which was isolated and propagated in Dubelcco's-Modified Eagle's Medium with. 10% fetal bovine serum (DMEM/10% FBS). After propagation, the cells were used to assemble ACGs on type II collagen coated Millipore Millicell-CM filters at a density of 2 million cells/cm^2, using the procedure described in U.S. Pat. No. 5,326,357. The ACGs were grown in defined ACG media (DMEM/2×ITS×(Invitrogen # 51500-056), 2% Human Serum Albumin) supplemented with 5 ng/ml TGF-β2 and 100 μg/ml ascorbic acid. After three weeks in culture, the levels of aggrecan and collagen type II expression in the ACGs peaked and leveled off. […]
(§2) After incubation with IL-1β for 24 hours, a group of the ACGs from Example 2 were harvested for quantitative real-time RT-PCR by snap freezing them in LN2. For quantitative real-time RT-PCR total RNA was isolated from the ACGs with TRIzol™ Reagent (Invitrogen # 15596-026) with subsequent cleanup using the Qiagen Rneasy™ Mini Kit (Qiagen # 74104). Contaminating DNA was removed from total RNA samples using the Ambion DNA-free kit (Ambion # 1906). cDNA synthesis was performed on 1 […] of each sample using the Amersham Ready-To-Go You-Prime First-Strand Beads™ (Amersham # 27-9264-01) primed with oligo dT. Reverse transcriptase activity was measured using the PicoGreen™ dsDNA quantitation Kit (Molecular Probes # P-7589). […]

collagenase 3 RNA = assay: Quantitative real-time RT-PCR of collagenase 3 RNA in IL-1β-treated ACGs; assay type: cell-based, human; conditions: ACG, 24 hours
Procedure: as §1, §2

stromelysin RNA = assay: Quantitative real-time RT-PCR of stromelysin RNA in IL-1β-treated ACGs; assay type: cell-based, human; conditions: ACG, 24 hours
Procedure: as §1, §2

aggrecanase 1 RNA = assay: Quantitative real-time RT-PCR of aggrecanase 1 RNA in IL-1β-treated ACGs; assay type: cell-based, human; conditions: ACG, 24 hours
Procedure: as §1, §2

aggrecanase 2 RNA = assay: Quantitative real-time RT-PCR of aggrecanase 2 RNA in IL-1β-treated ACGs; assay type: cell-based, human; conditions: ACG, 24 hours
Procedure: as §1, §2

[1] = test system: articular cartilage grafts (ACGs); assay: Histological assessment (toluidine blue) of proteoglycan and collagen levels in ACGs; assay type: cell-based, human; conditions: ACG; for presence or loss of proteoglycans, toluidine blue stain: 24 hours
Procedure: ACGs were constructed from the human chondrocyte strain Cc 05912 1°, which was isolated and propagated in Dubelcco's-Modified Eagle's Medium with. 10% fetal bovine serum (DMEM/10% FBS). After propagation, the cells were used to assemble ACGs on type II collagen coated Millipore Millicell-CM filters at a density of 2 million cells/cm^2, using the procedure described in U.S. Pat. No. 5,326,357. The ACGs were grown in defined ACG media (DMEM/2×ITS×(Invitrogen # 51500-056), 2% Human Serum Albumin) supplemented with 5 ng/ml TGF-β2 and 100 μg/ml ascorbic acid. After three weeks in culture, the levels of aggrecan and collagen type II expression in the ACGs peaked and leveled off.
After three weeks, the IL-1β (R&D Systems # 201-LB) and DBH incubations began. All of the preincubations and subsequent incubations were performed in DMEM. First all of the ACGs were washed twice with DMEM. Sample 1 ACGs were harvested for histology and gene expression analysis at the onset of the experiment. Next, 2 hour preincubations were performed on four groups, in triplicate for both histology and gene expression analysis. Sample 2 ACGs received 250 μl of DMEM to the inside and outside of the ACG. Sample 3 ACGs received the same. Sample 4 ACGs received 5 μm DBH in the same volumes as the other groups to the inside and outside of the Millicell filter containing the ACGs. Sample 5 ACGs received DMSO in the same volume as the DBH group as a vehicle control. The ACGs were then incubated for 2 hours. After the 2 hour preincubation with DBH, IL-1β incubation was added. Sample 2 received another 250 μl of DMEM in addition to the 250 μl that was added at the preincubation step. Sample 3 received 250 μl, inside and out, of DMEM with IL-1β at a final concentration of 2 ng/ml. Sample 4 also received IL-1β with the addition of more DBH to compensate for the volume change of DMEM to keep the concentration of 5 μm. Sample 5 also received IL-1β with an adjustment of the DMSO levels to compensate for the volume change of the DMEM.
After incubation with-lL-1β for 24 hours, a group of the ACGs from Example 2 were fixed in 10% neutral buffered formalin and embedded in paraffin. Sections were cut and stained with toluidine blue to assess the presence or loss of proteoglycans in the ACGs.

[2] = test system: chondrocyte monolayer cultures; conditions: U.S. Pat. No. 5,591,740; cited from earlier work
[3] = test system: Hartley guinea pig model of osteoarthritis; conditions: U.S. Pat. No. 5,591,740; cited from earlier work
[4] = 5 μm DBH (2 hour preincubation) + IL-1β 2 ng/ml

Compound | % reduction of IL-1β-induced gene expression with DBH, collagenase 1 (collagenase 1 RNA; [4]) | % reduction of IL-1β-induced gene expression with DBH, collagenase 3 (collagenase 3 RNA; [4]) | % reduction of IL-1β-induced gene expression with DBH, stromelysin (stromelysin RNA; [4]) | % reduction of IL-1β-induced gene expression with DBH, aggrecanase 1 (aggrecanase 1 RNA; [4]) | % reduction of IL-1β-induced gene expression with DBH, aggrecanase 2 (aggrecanase 2 RNA; [4]) | presence or loss of proteoglycans, toluidine blue stain ([1]; IL-1β 2 ng/ml and 5 μm DBH) | loss of proteoglycans and collagen, histological staining ([1]; IL-1β and DBH) | IL-1 induced degradation of matrix proteins [2] | preexisting cartilage damage [3] | Fold Induction by IL-1β, collagenase 1 (collagenase 1 RNA; IL-1β 2 ng/ml, RNA by Q RT-PCR) | Fold Induction by IL-1β, collagenase 3 (collagenase 3 RNA; IL-1β 2 ng/ml, RNA by Q RT-PCR) | Fold Induction by IL-1β, stromelysin (stromelysin RNA; IL-1β 2 ng/ml, RNA by Q RT-PCR) | Fold Induction by IL-1β, aggrecanase 1 (aggrecanase 1 RNA; IL-1β 2 ng/ml, RNA by Q RT-PCR) | Fold Induction by IL-1β, aggrecanase 2 (aggrecanase 2 RNA; IL-1β 2 ng/ml, RNA by Q RT-PCR) | presence or loss of proteoglycans, toluidine blue stain ([1]; IL-1β 2 ng/ml alone) | loss of proteoglycans and collagen, histological staining ([1]; IL-1β alone)
NC1=N/C(=C2/CCNC(=O)c3[nH]ccc32)C(=O)N1 [DBH, debromohymenialdesine] | 66% | 55% | 57% | 65% | 56% | decreased loss of proteoglycans | reduces the loss of proteoglycans and collagen | inhibits IL-1 induced degradation of matrix proteins | reduces preexisting cartilage damage | – | – | – | – | – | – | –
IL-1β: inflammatory cytokine (R&D Systems # 201-LB) used to induce osteoarthritic cartilage damage in ACGs | – | – | – | – | – | – | – | – | – | 183 | 17 | 168 | 4 | 4 | marked loss of proteoglycans | causes the loss of proteoglycans and collagen
